Data on one compound can be found in US10590392B2, “Generation of airway epithelial organoids from human pluripotent stem cells” (TRUSTEES OF BOSTON UNIVERSITY, priority 2017, dated 2020).

Structures are written as SMILES. Entries after “also recorded” stand apart in the source; their conditions may differ. Some results are limits rather than exact numbers.

Common to all, as to assay type: cell-based, human
For assay [1], the system named is iPSC-derived NKX2-1GFP+ lung progenitors. Kind of assay: Post-specification patterning of hPSC-derived lung progenitors, treatment day 15 to 19, RT-qPCR/flow cytometry of NKX2-1GFP+ cells. The protocol: Measurement of mRNA expression by reverse transcriptase quantitative real time PCR (RT-qPCR) was performed as previously described(Longmire et al., 2012). Briefly, RNA was extracted from cells using a QIAzol Lysis Reagent (Qiagen, Venlo, Netherlands) and 150 ng of RNA was transcribed to cDNA using reverse transcription reagents (Applied Biosystems). Real time PCR (qPCR) was performed using TaqMan Fast Universal PCR Master Mix (ThermoFisher) and TaqMan (Applied Biosystems) reagents. The cDNA was diluted 1:3 and 2 μL of cDNA was added to each 25 μL (for Applied Biosystems StepOne 96-well System) or 12.5 μL (for Applied Biosystems QuantStudio7 384-well system) qPCR reaction. Each sample was run in technical triplicates and cycle (Ct) values were averaged between triplicates for analysis. Relative gene expression, normalized to 18S control, was calculated as fold change in 18S-normalized gene expression, compared to baseline, using the 2^(−ΔΔCT) method. Baseline, defined as fold change=1, was set to undifferentiated iPSC levels, or if undetected, a cycle number of 40 was assigned to allow fold change calculations. Adult lung control RNA was extracted from a normal lung biopsy sample. Primers were all TaqMan probes purchased from Applied Biosystems. Specifics of primers used are detailed in Table 1.
Day 14-16 cells from the lung progenitor directed differentiation protocol were harvested with 0.05% Trypsin-EDTA (Invitrogen) and replated in clumps in either Matrigel-coated tissue culture dishes in two-dimensional culture or in three-dimensional Matrigel drops. Matrigel drops were formed by resuspending cell clumps directly in undiluted Matrigel matrix, pipetting 50-100 μL into each well, and allowing the Matrigel/cell mixture to gel for 30 minutes at 37° C. Cell drops were then covered completely with growth medium.
Post-specification culture conditions were determined by the addition of growth factors to cSFDM. For patterning experiments, growth factors were added to a base media containing 10 ng/mL rhFGF10 (“Base”) and additional factors detailed in the results text. For concentrations of growth factors required for each experiment, see Table 2. Cells were additionally cultured with 10 μM Y-27632 (Tocris) for 24 hours after replating. Doses of growth factors were determined based on previously published directed differentiation protocols (Huang et al., 2013; Kurmann et al., 2015; Longmire et al., 2012) as well as dose-response experiments using 7XTCF lentiviral reporters for CHIR99021 (Figure S2d-e). […]
To test whether the inventors could efficiently induce a proximal vs distal program in iPSC-derived lung progenitors, the inventors modulated key developmental pathways beginning on day 15 of differentiation in our model system (FIG. 1C-1E), and monitored changes in SOX2 and SOX9 expression that are due to coordinated proximal vs distal patterning changes in purified NKX2-1^GFP+ cells within 4 days of treatment. At day 15, post-lung specification, the inventors cultured cells in a base media of “low dose” (10 ng/mL) FGF10 to promote proliferation without strongly inducing patterning(Volckaert et al., 2013). From this base media, the inventors stimulated the following pathways: Wnt signaling via the potent GSK3β inhibitor CHIR99021, hereafter CHIR; FGF signaling using FGF2 or high dose (100 ng/mL) FGF10; BMP signaling using BMP4; and TGFβ signaling using TGFβ
Background: Quantitative PCR measures a nucleic acid by following its amplification.

Assay [2] relates to iPSC-derived NKX2-1+ lung progenitors. Nature of the assay: Immunofluorescence and intracellular flow cytometry for NKX2-1, SOX2, SOX9, P63 coexpression at day 19. The protocol: Cells were harvested for intracellular flow cytometry and fixed for 10-20 minutes at 37° C. in fresh 1.6% paraformeldehyde. Cells were permeabilized with Cell Permeabilization Buffer (eBioscience, San Diego, Calif.) containing 4% normal donkey serum (Sigma) in PBS and stained with primary antibody for NKX2-1 (Abcam # ab76013, rabbit EP1584Y, 1:100) or a conjugated antibody for SOX2 (BD #561506, PerCP-Cy5.5 conjugated, mouse O30-678, 1:100). Anti-NKX2-1 antibody was detected by secondary antibody stainings with either Cy3, Alexa Fluor 488, or Alexa Fluor 647 fluorophore-conjugated secondary antibodies (AffiniPure Donkey Anti-Rabbit IgG (H+L); 1:500; Jackson ImmunoResearch, West Grove, Pa.). Stained cells were analyzed on a FacsCalibur instrument (BD Biosciences, San Jose, Calif.) and data was analyzed with FlowJo software (Ashland, Oreg.).
Cells for immunofluorescence microscopy were cultured on glass coverslips (ThermoFisher). Cultured cells were fixed with fresh 4% paraformeldehyde and stained as described previously(Kurmann et al., 2015). Briefly, cells were permeabilized with 0.3% Triton-X (Sigma) for 10 minutes at room temperature then blocked with 4% normal donkey serum (Sigma) for 30 minutes at room temperature. Cells were incubated with primary antibodies (detailed in Key Resources Table 3) overnight at 4° C., washed, and incubated with secondary antibodies for 30-60 minutes at room temperature. All secondary antibodies were conjugated to Alexa Fluor 488, Cy3, or Alexa Fluor 647 (Jackson Immunoresearch, 1:500). After antibody staining, nuclei were stained with Hoescht dye (ThermoFisher, 1:500). Coverslips with cells were mounted on glass slides using Prolong Diamond Anti-Fade Mounting Reagent (ThermoFisher) and imaged on a Nikon (Tokyo, Japan) deconvolution microscope.
Quantification of nuclear colocalization was performed using Nikon NIS Elements software using the Object Count function. 3-5 areas from each slide were analyzed for each replicate. The total image area where NKX2-1 and SOX2 or P63 overlapped was divided by the area containing only the NKX2-1 stain.
In general terms: In flow cytometry, cells or beads pass a laser one at a time.

Assay [3] concerns iPSC-derived anterior foregut endoderm cells. Nature of the assay: Lung specification from anterior foregut endoderm with or without CHIR (NKX2-1GFP flow cytometry, 7XTCF-mCherry reporter).
[4] abbreviates: NKX2-1GFP+ sorted cells on day 19 after treatment day 15-19, vs base media (10 ng/mL FGF10), RT-qPCR.
[5] abbreviates: in response to CHIR withdrawal day 15-19, within 4 days.

Consider `Cc1c[nH]c(-c2cnc(NCCNc3ccc(C#N)cn3)nc2-c2ccc(Cl)cc2Cl)n1` [CHIR, CHIR99021], for which the “expression of Wnt signaling responsive genes LEF1, NKD1, AXIN2” value in assay [1] (CHIR withdrawal day 15-19, day 19) was “reduced expression”. For the same compound, the “lentiviral TCF-driven reporter (7XTCF-mCherry) expression” value in assay [1] (CHIR withdrawal day 15-19, day 19, NKX2-1+ cells) is “reduced”. In addition, in assay [1] (setting [4]), the “SCGB3A2 mRNA expression” value is reported as “decreased expression”, the “SOX2 mRNA expression” value is given as “significantly decreased” and the “SOX9 mRNA expression” value is given as “increased”. Moreover, in assay [1] (setting [5]), the “expression of distal markers SOX9 and ETV5” value is “downregulated; also recorded: decreased expression”; the “expression of proximal airway markers (SCGB3A2, TP63/P63, MUC5AC)” value is “upregulated; also recorded: significantly increased expression”. Also, in assay [1] (withdrawal of CHIR from day 15 to 19, flow cytometry), the “percentage of NKX2-1GFP+ cells by day 19” value was “significantly decreased percentage”. Further, the “cells co-expressing NKX2-1 and P63” value in assay [2] (CHIR withdrawal day 15-19 (FGF10 alone) vs CHIR, immunofluorescence) is “increased frequencies; also recorded: significantly increased coexpression”. The “percentage of cells coexpressing NKX2-1 and SOX2” value in assay [2] (CHIR withdrawal day 15-19 vs CHIR) is listed as “significantly higher percentage; also recorded: small but significant increase”. In addition, the “NKX2-1+ population expressing SOX2” value in assay [2] (CHIR-treated day 15-19, intracellular flow cytometry, without CHIR 68.0±4.1%) turned out to be 54.9±5.5%. For the same compound, in assay [2] (day 19, with CHIR (also without CHIR)), the “SOX2+ cells among NKX2-1+ cells” value is given as above 50%. Also, in assay [2] (sustained CHIR day 15-19, triple immunostaining, 4 days after withdrawal of CHIR <40%), the “NKX2-1+ cells that were SOX9+” value is above 90%. In assay [3] (cells differentiated without CHIR to day 15), the “rescue of NKX2-1GFP expression by later addition” value was “could not be rescued”. Moreover, the “NKX2-1GFP expression during lung specification” value in assay [3] (presence of CHIR vs without, as early as 48 h after initiation of specification, maintained until at least day 15) is on record as “significantly higher levels”. The “7TC (7XTCF-mCherry) reporter expression” value in assay [3] (specification media with CHIR vs vehicle alone, normalized to Ef1aL-mCherry) is “rapid upregulation”.
